We go through one compound from article PMC12009420, “Dynamically chiral phosphonic acid-type metallo-β-lactamase inhibitors” (Communications Chemistry, 2025).

Data set [1] deals with T1, GIM-1 (Pseudomonas aeruginosa, UniProt Q704V1). Kind of data set: Enzymatic metallo-β-lactamase assay on purified GIM-1. The data set is classed as biochemical.
Data set [2] concerns the target T1, GIM-1. The data set is described as above. The data set is classed as biochemical. Particulars: approximated from Dixon plots (1/v vs [I]) at one constant substrate concentration; ± SE; read-out: Estimated inhibition constant Ki GIM-1.
The nature of data set [3]: Long term stability in buffer with 2.5% DMSO (LC-MS). The data set is classed as physicochemical. Particulars: 20 mM KPO4, 0.1 mM ZnCl2, pH 7.0 + 2.5% DMSO; LC-MS 254 nm.
The target of data set [4] is T2, VIM-2 (Escherichia coli, UniProt Q5U7L7). The experiment in a line: Enzymatic metallo-β-lactamase assay on purified VIM-2. The data set is classed as biochemical.
The target in data set [5] is T2, VIM-2. The experiment in a line: Enzyme steady state kinetic studies (inhibitor 5g and VIM-2). The class given is biochemical. The note with it: for Ki / Vmax: nitrocefin. How it is done:
Enzyme steady state kinetic studies were performed to determine the mechanism of inhibition using inhibitor 5g and VIM-2 (Section 7, Supplementary Information). […] Assays were conducted in triplicates on a 96 well plate. Absorbance was measured at 482 nm using a SpectraMax 190 plate reader. Solutions of 300 μL consisting of buffer, purified enzyme (0.3 nM VIM-2), inhibitor 5g and reporter substrate nitrocefin with final 2.5% DMSO were incubated in triplicates on a 96 well plate for 5 min at 30 °C. Buffer solution consisted of 50 mM HEPES pH 7.2, 50 μM ZnSO4 and 0.4 mg/ml bovine serum albumin.
7. Enzyme kinetic studies
Enzyme steady state kinetic studies were performed to determine the mechanism of inhibition using inhibitor 5g and VIM-2. Km’, Ki and Vmax values were determined (Table S6).
For data analysis, SimFit software was used to fit the initial reaction velocities (v₀) to a Michaelis-Menten (1:1) model (Figure S40a). […]
Table S6. Kinetic parameters (Km’, Ki and vmax values) of inhibitor 5g against VIM-2 using nitrocefin as reporter substrate.
Figure S40. a, Michaelis-Menten fitting of the substrate concentration dependence of initial reaction velocities. b, Double reciprocal plot of the data in a, for VIM-2 in the absence and presence of inhibitor 5g at two concentrations (36 μM and 72 μM) using nitrocefin as substrate. [I] is the concentration of inhibitor 5g.

T1 sequence (Q704V1 entry or part of it): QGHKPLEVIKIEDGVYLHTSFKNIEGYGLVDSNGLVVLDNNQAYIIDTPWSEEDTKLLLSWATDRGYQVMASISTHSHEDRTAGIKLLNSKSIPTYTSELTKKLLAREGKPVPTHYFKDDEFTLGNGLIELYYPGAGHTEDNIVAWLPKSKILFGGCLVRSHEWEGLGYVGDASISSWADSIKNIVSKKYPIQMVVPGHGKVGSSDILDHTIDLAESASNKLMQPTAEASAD

`O=C(NC(c1ccccc1O)P(=O)(O)O)c1scc2c1CCCC2` (centres unmarked) [5g]: at GIM-1 [1] (log of IC50, ± SEM of logIC50), the “logIC50 GIM-1” value stood at 1.33 ± 0.11 μM. Moreover, the half-maximal inhibitory concentration (IC50) against GIM-1 [1] (purified enzyme 1 nM, nitrocefin 2 μM, pH 7.2, 25 °C) worked out at 21 µM; on VIM-2 [4] (purified enzyme 1 nM, nitrocefin 15 μM, pH 7.2, 25 °C), 12 µM. Further, the Ki at GIM-1 [2] is 113 ± 66 µM; at VIM-2 [4] (approximated from Dixon plots (1/v vs [I]) at one constant substrate concentration, ± SE, read-out: Estimated inhibition constant Ki VIM-2) it was 43 ± 15 µM; at VIM-2 [5] (Michaelis-Menten fit and Lineweaver-Burk plot, 30 °C), 36 ± 3.3 µM; at VIM-2 [5] ([I] 36 μM) it was 31.3 µM; on VIM-2 [5] ([I] 72 μM), 40.7 µM. Moreover, the “main peak Area% kept in buffer for 1 month” value in data set [3] is listed as 98.05%. In data set [3], the “main peak Area% right after dissolving in buffer” value is recorded as 98.21%. Moreover, at VIM-2 [4] (log of IC50, ± SEM of logIC50), the “logIC50 VIM-2” value amounted to 1.06 ± 0.04 μM. The inhibition mode entry against VIM-2 [5] (Michaelis-Menten model and Lineweaver-Burk plot) is on record as “competitive inhibition”. Moreover, the Vmax on VIM-2 [5] ([I] 36 μM) is reported as 50.0 ΔA/min; on VIM-2 [5] ([I] 72 μM), 47.0 ΔA/min.
